For this assay, the system named is 857933-349-R-J2-PDC complex spheroid viability. Description: Anticancer human tumor 857933-349-R-J2-PDC patient-derived colon adenocarcinoma cell line growth inhibition [POLQ]. As to conditions: for viability, T/C: stronger effect = lower value. The protocol: Multicellular complex tumor spheroid response to Polymerase (POL) inhibitors (novobiocin, ART-558, RP6685) in combination with a variety of drugs and investigational agents in selected tumor cell lines
The POL inhibitors (novobiocin, ART-558, and RP6685) were evaluated both individually and in combination with standard of care and investigational anticancer small molecules within a complex spheroid model of solid tumors. . Complex spheroids include a stromal component modeled by human endothelial cells (HUVEC) and fibroblasts modeled by human mesenchymal stem cells (MSCs). The concentration ranges selected for each drug and investigational agent were based upon clinically achievable concentrations if the clinical Cmax of the agent was known.
Compounds. The drugs and investigational agents: novobiocin (NSC847541), ART-558 (NSC835418), RP-6685 (NSC848927), peposertib (NSC802822), ceralasertib (NSC780249), elimusertib (NSC800525), camonsertib (NSC841442), AZD-1390 (NSC803789), olaparib (NSC753686), talazoparib (NSC767125), rucaparib (NSC756644), sotorasib (NSC818433), MRTX-1133 (NSC836407), SN-38 (NSC673596), topotecan (NSC609699), epotoside (NSC141540), doxorubicin (NSC123127), gemcitabine (NSC613327), 5-fluorouracil (NSC19893), paclitaxel (NSC125973), vemurafenib (NSC761431), MSA-2 (NSC828583), SN-011 (NSC837082), adavosertib (NSC754352), prexasertib (NSC758257), carboplatin (NSC241240) and oxaliplatin (NSC266046), were obtained from the National Cancer Institute (NCI) Developmental Therapeutics Program Chemical Repository (21). The FDA-approved anticancer drug set is available from the Developmental Therapeutics Program at https://dtp.cancer.gov/organization/dscb/obtaining/. […] The stock solutions were prepared in dimethyl sulfoxide (DMSO, Sigma-Aldrich, St. Louis, MO, cat. D2650), except for the platinum compounds which were prepared in saline (Quality Biological, Gaithersburg, MD, cat. 114-055-101), at 800-fold the tested concentration and stored at -70 degrees C prior to their use. All drugs and investigational agents were tested over a range starting from a high concentration at or near the clinical Cmax and decreasing in half-log increments. If the clinical Cmax for an agent had not been determined, the highest concentration tested was 10 microM, except for SN-38, which was tested at a high concentration of 1 microM.
Cell Culture. All cells were maintained in an incubator at 37 degrees C and 5% CO2 with 95% humidity. The PDC lines were cultured according to standard operating procedures established by the NCI PDMR (https://pdmr.cancer.gov). Table 3 of the manuscript, lists the cell lines along with the number of the three cell types plated to form the mct-spheroids and media for tumor cell growth. After thawing, all PDC lines, except 997537-175-T-J1-PDC and 415267-285-R-J2-PDC, were cultured in Matrigel-coated flasks prepared with a working solution of 1X Ham's F-12 nutrient mix, without supplementation (Thermo Fisher Scientific, cat. 11765054), 100 U/mL penicillin-streptomycin (Thermo Fisher Scientific, cat. 15140122), and 2.5% Matrigel (Corning Inc., Corning, NY, cat. 354248) for the first three passages. The two PDC lines 997537-175-T-J1-PDC and 415267-285-R-J2-PDC were cultured on uncoated flasks. The 857933-349-R-J2-PDC line was cultured in 6C/Colon 1B media containing advanced DMEM/F-12 (Thermo Fisher Scientific, cat. 12634028), 10 mM HEPES (Thermo Fisher Scientific, cat. 15630080), 1X GlutaMAX supplement (Thermo Fisher Scientific, cat. 35050061), 0.1 mg/mL primocin (InvivoGen, San Diego, CA, cat. ant-pm-2), 10% defined fetal bovine serum, heat inactivated (HyClone Laboratories Inc., Logan, UT, cat. SH30070.03HI), 50% L-WRN conditioned media (ATCC, cat. CRL-3276), 1.25 mM N-Acetyl-L-cysteine (Sigma-Aldrich, cat. A9165), 10 mM nicotinamide (Sigma-Aldrich, cat. N0636), 1X B-27 supplement (Thermo Fisher Scientific, cat. 17504044), 1X N-2 supplement (Thermo Fisher Scientific, cat. […]

[1] abbreviates: compound alone, run of 01/19/2024.

“And” between values parts separate entries of the source, which are not always exact repeats. Identical values can stand only once. Bounds are passed on as bounds.

The values that follow come from PubChem BioAssay AID1963836 (Molecular Pharmacology Branch, DTP, NCI, 2024).

What is called viability, T/C is the ratio of treated to control. As a reminder, the IC50 is the midpoint of a concentration-inhibition curve.
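Further: spheroids exposed to compounds for seven days before readout.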

Regarding `CNCc1ccc(-c2[nH]c3cc(F)cc4c3c2CCNC4=O)cc1`, the viability, T/C was 100% and 90.4% and 94.9% (compound 0.0316 µM); 113% and 94.5% and 90.2% (compound 0.1 µM); 112% and 94.5% and 80.8% (compound 0.316 µM); 109% and 95.4% and 91.2% (compound 1 µM); 108% and 106% and 89.7% (compound 3.16 µM); 97.1% and 91.2% and 90% (compound 10 µM). In addition, the IC50 (curve of compound) is > 10000 nM.
Regarding `COc1cc(C2c3cc4c(cc3C(OC3OC5COC(C)OC5C(O)C3O)C3COC(=O)C23)OCO4)cc(OC)c1O` (configuration not stated), the viability, T/C by setting is: (compound 0.0316 µM) 74.7% and 90.5% and 74.8%; (compound 0.1 µM) 74% and 67.4% and 84.9%; (compound 0.316 µM) 51.1% and 65.9% and 54.1%; (compound 1 µM) 60% and 59.9% and 55.7%; (compound 3.16 µM) 38.2% and 33.4% and 32.9%; (compound 10 µM) 24.6% and 24.7% and 27.6%. For the same compound, under “curve of compound”, the IC50 was 1160 nM and 1190 nM and 955 nM.
Consider `COc1ccc([C@@H](O)c2cc(-c3ncnc4cc(N5CCOCC5)ccc34)c(F)cc2Cl)nn1`, for which the viability, T/C was 97.4% and 82.2% and 96.7% (compound 0.0316 µM); 85.4% and 95.2% and 123% (compound 0.1 µM); 85.5% and 99% and 89.7% (compound 0.316 µM); 102% and 100% and 95.2% (compound 1 µM); 84.8% and 82.1% and 79.2% (compound 3.16 µM); 71.6% and 58.9% and 66% (compound 10 µM). Further, the IC50 (curve of compound) is > 10000 nM.
As to `COc1cccc(OCCCN)c1-c1cc(Nc2cnc(C#N)cn2)n[nH]1`, the viability, T/C reads like this: (compound 0.00316 µM) 91.5% and 95.9% and 86.6%; (compound 0.01 µM) 87.6% and 84.2% and 97.2%; (compound 0.0316 µM) 74.3% and 98.6% and 80.6%; (compound 0.1 µM) 51.2% and 62.8% and 75.9%; (compound 0.316 µM) 53.3% and 60.6% and 53.7%; (compound 1 µM) 38.1% and 53.8% and 48.8%. Further, the IC50 (curve of compound) is 189 nM and > 1000 nM and 731 nM.
Consider `COc1cccc2c1C(=O)c1c(O)c3c(c(O)c1C2=O)CC(O)(C(=O)CO)CC3OC1CC(N)C(O)C(C)O1` (configuration not stated), for which the viability, T/C is, setting by setting: (compound 0.0316 µM) 74.8% and 79.1% and 66.5%; (compound 0.1 µM) 76.8% and 69% and 68.7%; (compound 0.316 µM) 43.7% and 46.9% and 49.5%; (compound 1 µM) 10.4% and 8.69% and 8.8%; (compound 3.16 µM) 0.42% and 0.45% and 0.4%; (compound 10 µM) 0.55% and 0.34% and 0.38%. Moreover, the IC50 (curve of compound) is 259 nM and 312 nM.
As to `Cc1cccc(N(C)C(=O)C2C(O)CCN2c2nc(C)cc(C(F)(F)F)c2C#N)c1` (configuration not stated), the viability, T/C (compound 0.0316 µM) was 96.2% [middle of 13 runs]. For the same compound, the IC50 (compound alone, run of 01/08/2024) is > 10000 nM and the IC50 under setting [1] is > 10000 nM.
As to `Cn1ncnc1[C@H]1c2n[nH]c(=O)c3cc(F)cc(c23)N[C@@H]1c1ccc(F)cc1`, the viability, T/C reads like this: (compound 0.000316 µM) 96.9% and 93.8% and 114%; (compound 0.001 µM) 93.6% and 90.7% and 86.2%; (compound 0.00316 µM) 105% and 103% (2×); (compound 0.01 µM) 99.3% and 97.8% and 73.1%; (compound 0.0316 µM) 85.6% and 89.2% and 103%; (compound 0.1 µM) 90.2% and 97.5% and 88.9%. Further, the IC50 (curve of compound) is > 100 nM.
`Nc1ccc(C#CCN(C(=O)Cc2ncc(C(F)(F)F)cc2C(F)(F)F)c2ccc(F)cc2)nn1`: the viability, T/C is 97.7% [middle of 13 runs] (compound 0.0316 µM); 104% [middle of 13 runs] (compound 0.1 µM); 102% [middle of 13 runs] (compound 0.316 µM); 99.5% [middle of 13 runs] (compound 1 µM); 99.5% [middle of 13 runs] (compound 10 µM). For the same compound, the IC50 under setting [1] is > 10000 nM.
Take `Nc1ccn(C2OC(CO)C(O)C2(F)F)c(=O)n1` (configuration not stated): the viability, T/C is, setting by setting: (compound 0.0316 µM) 73.9% and 60.7% and 67.2%; (compound 0.1 µM) 59.8% and 43.2% and 55.4%; (compound 0.316 µM) 25.9% and 10.6% and 33.7%; (compound 1 µM) 19.8% and 9.28% and 16.4%; (compound 3.16 µM) 13% and 7.52% and 11.1%; (compound 10 µM) 10.5% and 5.88% and 9.87%. The IC50 (curve of compound) is 139 nM and 63.8 nM and 134 nM.
Take `O=C(c1cc(Cc2n[nH]c(=O)c3ccccc23)ccc1F)N1CCN(C(=O)C2CC2)CC1`: the viability, T/C runs as follows: (compound 0.0316 µM) 110% and 84.9% and 98.6%; (compound 0.1 µM) 108% and 96.5% and 87.8%; (compound 0.316 µM) 96.2% and 105% and 95.9%; (compound 1 µM) 101% and 98.2% and 108%; (compound 3.16 µM) 94.1% and 79.9% and 110%; (compound 10 µM) 72.3% and 76.5% and 84.3%. Moreover, the IC50 (curve of compound) was > 10000 nM.
As to `O=c1[nH]cc(F)c(=O)[nH]1`, the viability, T/C runs as follows: (compound 0.0316 µM) 98.7% and 89.7% and 53.3%; (compound 0.1 µM) 89.1% and 112% and 86.9%; (compound 0.316 µM) 114% and 97.8% and 96%; (compound 1 µM) 72.6% and 81.3% and 59.4%; (compound 3.16 µM) 45.8% and 37.1% and 40.2%; (compound 10 µM) 28.3% and 24.9% and 21.5%. In addition, under “curve of compound”, the IC50 is 2380 nM and 2250 nM and 1890 nM.
